The values that follow come from publication PMC8883573, “New Insights Into the Function of Flavohemoglobin in Mycobacterium tuberculosis: Role as a NADPH-Dependent Disulfide Reductase and D-Lactate-Dependent Mycothione Reductase” (Frontiers in Cellular and Infection Microbiology, 2022).

The target in the assay is T1, MtbFHb (Mycobacterium tuberculosis, UniProt Q7ARS9).
T1 construct: gene Rv0385
T1 sequence (Q7ARS9 entry or part of it): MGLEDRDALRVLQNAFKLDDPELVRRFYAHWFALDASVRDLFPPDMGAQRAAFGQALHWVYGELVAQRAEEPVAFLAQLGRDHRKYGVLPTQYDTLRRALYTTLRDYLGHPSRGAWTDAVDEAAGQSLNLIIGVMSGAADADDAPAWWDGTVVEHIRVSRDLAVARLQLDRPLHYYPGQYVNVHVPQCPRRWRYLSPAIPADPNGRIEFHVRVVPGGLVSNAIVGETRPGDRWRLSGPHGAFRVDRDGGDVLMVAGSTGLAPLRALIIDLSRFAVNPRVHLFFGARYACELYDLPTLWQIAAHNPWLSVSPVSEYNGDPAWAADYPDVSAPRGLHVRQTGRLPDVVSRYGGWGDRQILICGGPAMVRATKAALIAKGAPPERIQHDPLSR

On to `C[C@@H](O)C(=O)O` [D-lactate], for which the “far-UV circular dichroism (conformational change)” value is “These results confirmed a conformational change in MtbFHb during its interaction with D-lactate”.
